Source: BigSolDB 2.1

Nc1ncccn1
solubility (mole fraction) (in 2-butanone, 272.65 K): 0.0201 | solubility (mole fraction) (in 2-butanone, 278.25 K): 0.0249 | solubility (mole fraction) (in 2-butanone, 283.55 K): 0.0317 | solubility (mole fraction) (in 2-butanone, 288.15 K): 0.0361 | solubility (mole fraction) (in 2-butanone, 293.15 K): 0.0418 | solubility (mole fraction) (in 2-butanone, 297.85 K): 0.0512 | solubility (mole fraction) (in 2-butanone, 302.65 K): 0.0621 | solubility (mole fraction) (in 2-butanone, 307.25 K): 0.0721 | solubility (mole fraction) (in 2-butanone, 312.55 K): 0.0865 | solubility (mole fraction) (in 2-butanone, 317.35 K): 0.0988 | solubility (mole fraction) (in 2-butanone, 323.35 K): 0.118 | solubility (mole fraction) (in 2-pentanone, 272.65 K): 0.0158 | solubility (mole fraction) (in 2-pentanone, 278.25 K): 0.0192 | solubility (mole fraction) (in 2-pentanone, 283.55 K): 0.0238 | solubility (mole fraction) (in 2-pentanone, 288.15 K): 0.027 | solubility (mole fraction) (in 2-pentanone, 293.15 K): 0.0309 | solubility (mole fraction) (in 2-pentanone, 297.85 K): 0.0372 | solubility (mole fraction) (in 2-pentanone, 302.65 K): 0.0446 | solubility (mole fraction) (in 2-pentanone, 307.25 K): 0.0513 | solubility (mole fraction) (in 2-pentanone, 312.55 K): 0.0603 | solubility (mole fraction) (in 2-pentanone, 317.35 K): 0.0684 | solubility (mole fraction) (in 2-pentanone, 323.35 K): 0.0808 | solubility (mole fraction) (in acetone, 272.65 K): 0.0222 | solubility (mole fraction) (in acetone, 278.25 K): 0.027 | solubility (mole fraction) (in acetone, 283.55 K): 0.0311 | solubility (mole fraction) (in acetone, 288.15 K): 0.0359 | solubility (mole fraction) (in acetone, 293.15 K): 0.0415 | solubility (mole fraction) (in acetone, 297.85 K): 0.0478 | solubility (mole fraction) (in acetone, 302.65 K): 0.0545 | solubility (mole fraction) (in acetone, 307.25 K): 0.0618 | solubility (mole fraction) (in acetone, 312.55 K): 0.0702 | solubility (mole fraction) (in acetone, 317.35 K): 0.0802 | solubility (mole fraction) (in acetone, 323.35 K): 0.0913 | solubility (mole fraction) (in acetonitrile, 272.65 K): 0.0108 | solubility (mole fraction) (in acetonitrile, 278.25 K): 0.0128 | solubility (mole fraction) (in acetonitrile, 283.55 K): 0.0156 | solubility (mole fraction) (in acetonitrile, 288.15 K): 0.0176 | solubility (mole fraction) (in acetonitrile, 293.15 K): 0.0203 | solubility (mole fraction) (in acetonitrile, 297.85 K): 0.0251 | solubility (mole fraction) (in acetonitrile, 302.65 K): 0.0308 | solubility (mole fraction) (in acetonitrile, 307.25 K): 0.0366 | solubility (mole fraction) (in acetonitrile, 312.55 K): 0.0449 | solubility (mole fraction) (in acetonitrile, 317.35 K): 0.0531 | solubility (mole fraction) (in acetonitrile, 323.35 K): 0.0661 | solubility (mole fraction) (in cyclohexanone, 272.65 K): 0.0371 | solubility (mole fraction) (in cyclohexanone, 278.25 K): 0.0457 | solubility (mole fraction) (in cyclohexanone, 283.55 K): 0.0529 | solubility (mole fraction) (in cyclohexanone, 288.15 K): 0.0618 | solubility (mole fraction) (in cyclohexanone, 293.15 K): 0.072 | solubility (mole fraction) (in cyclohexanone, 297.85 K): 0.0835 | solubility (mole fraction) (in cyclohexanone, 302.65 K): 0.0952 | solubility (mole fraction) (in cyclohexanone, 307.25 K): 0.109 | solubility (mole fraction) (in cyclohexanone, 312.55 K): 0.124 | solubility (mole fraction) (in cyclohexanone, 317.35 K): 0.143 | solubility (mole fraction) (in cyclohexanone, 323.35 K): 0.164 | solubility (mole fraction) (in cyclopentanone, 272.65 K): 0.0605 | solubility (mole fraction) (in cyclopentanone, 278.25 K): 0.0721 | solubility (mole fraction) (in cyclopentanone, 283.55 K): 0.0815 | solubility (mole fraction) (in cyclopentanone, 288.15 K): 0.0918 | solubility (mole fraction) (in cyclopentanone, 293.15 K): 0.103 | solubility (mole fraction) (in cyclopentanone, 297.85 K): 0.116 | solubility (mole fraction) (in cyclopentanone, 302.65 K): 0.128 | solubility (mole fraction) (in cyclopentanone, 307.25 K): 0.14 | solubility (mole fraction) (in cyclopentanone, 312.55 K): 0.154 | solubility (mole fraction) (in cyclopentanone, 317.35 K): 0.169 | solubility (mole fraction) (in cyclopentanone, 323.35 K): 0.185 | solubility (mole fraction) (in ethanol, 272.65 K): 0.00996 | solubility (mole fraction) (in ethanol, 278.25 K): 0.0138 | solubility (mole fraction) (in ethanol, 283.55 K): 0.0184 | solubility (mole fraction) (in ethanol, 288.15 K): 0.0234 | solubility (mole fraction) (in ethanol, 293.15 K): 0.0302 | solubility (mole fraction) (in ethanol, 297.85 K): 0.0384 | solubility (mole fraction) (in ethanol, 302.65 K): 0.0485 | solubility (mole fraction) (in ethanol, 307.25 K): 0.06 | solubility (mole fraction) (in ethanol, 312.55 K): 0.0765 | solubility (mole fraction) (in ethanol, 317.35 K): 0.0945 | solubility (mole fraction) (in ethanol, 323.35 K): 0.123 | solubility (mole fraction) (in ethyl acetate, 272.65 K): 0.0337 | solubility (mole fraction) (in ethyl acetate, 278.25 K): 0.0366 | solubility (mole fraction) (in ethyl acetate, 283.55 K): 0.0407 | solubility (mole fraction) (in ethyl acetate, 288.15 K): 0.0436 | solubility (mole fraction) (in ethyl acetate, 293.15 K): 0.0474 | solubility (mole fraction) (in ethyl acetate, 297.85 K): 0.0536 | solubility (mole fraction) (in ethyl acetate, 302.65 K): 0.0609 | solubility (mole fraction) (in ethyl acetate, 307.25 K): 0.0678 | solubility (mole fraction) (in ethyl acetate, 312.55 K): 0.0779 | solubility (mole fraction) (in ethyl acetate, 317.35 K): 0.0867 | solubility (mole fraction) (in ethyl acetate, 323.35 K): 0.101 | solubility (mole fraction) (in ethyl formate, 272.65 K): 0.0286 | solubility (mole fraction) (in ethyl formate, 278.25 K): 0.0364 | solubility (mole fraction) (in ethyl formate, 283.55 K): 0.0471 | solubility (mole fraction) (in ethyl formate, 288.15 K): 0.0542 | solubility (mole fraction) (in ethyl formate, 293.15 K): 0.0631 | solubility (mole fraction) (in ethyl formate, 297.85 K): 0.0772 | solubility (mole fraction) (in ethyl formate, 302.65 K): 0.0928 | solubility (mole fraction) (in ethyl formate, 307.25 K): 0.106 | solubility (mole fraction) (in ethyl formate, 312.55 K): 0.125 | solubility (mole fraction) (in ethyl formate, 317.35 K): 0.14 | solubility (mole fraction) (in ethyl formate, 323.35 K): 0.163 | solubility (mole fraction) (in isobutanol, 272.65 K): 0.00833 | solubility (mole fraction) (in isobutanol, 278.25 K): 0.0116 | solubility (mole fraction) (in isobutanol, 283.55 K): 0.0155 | solubility (mole fraction) (in isobutanol, 288.15 K): 0.02 | solubility (mole fraction) (in isobutanol, 293.15 K): 0.0259 | solubility (mole fraction) (in isobutanol, 297.85 K): 0.0331 | solubility (mole fraction) (in isobutanol, 302.65 K): 0.0423 | solubility (mole fraction) (in isobutanol, 307.25 K): 0.0528 | solubility (mole fraction) (in isobutanol, 312.55 K): 0.0669 | solubility (mole fraction) (in isobutanol, 317.35 K): 0.0828 | solubility (mole fraction) (in isobutanol, 323.35 K): 0.107 | solubility (mole fraction) (in isopentanol, 272.65 K): 0.0102 | solubility (mole fraction) (in isopentanol, 278.25 K): 0.0136 | solubility (mole fraction) (in isopentanol, 283.55 K): 0.0174 | solubility (mole fraction) (in isopentanol, 288.15 K): 0.0215 | solubility (mole fraction) (in isopentanol, 293.15 K): 0.0264 | solubility (mole fraction) (in isopentanol, 297.85 K): 0.0321 | solubility (mole fraction) (in isopentanol, 302.65 K): 0.0385 | solubility (mole fraction) (in isopentanol, 307.25 K): 0.0458 | solubility (mole fraction) (in isopentanol, 312.55 K): 0.0546 | solubility (mole fraction) (in isopentanol, 317.35 K): 0.0638 | solubility (mole fraction) (in isopentanol, 323.35 K): 0.0769 | solubility (mole fraction) (in isopropanol, 272.65 K): 0.00686 | solubility (mole fraction) (in isopropanol, 278.25 K): 0.00999 | solubility (mole fraction) (in isopropanol, 283.55 K): 0.0139 | solubility (mole fraction) (in isopropanol, 288.15 K): 0.0184 | solubility (mole fraction) (in isopropanol, 293.15 K): 0.025 | solubility (mole fraction) (in isopropanol, 297.85 K): 0.0325 | solubility (mole fraction) (in isopropanol, 302.65 K): 0.0422 | solubility (mole fraction) (in isopropanol, 307.25 K): 0.0539 | solubility (mole fraction) (in isopropanol, 312.55 K): 0.0718 | solubility (mole fraction) (in isopropanol, 317.35 K): 0.0918 | solubility (mole fraction) (in isopropanol, 323.35 K): 0.122 | solubility (mole fraction) (in methanol, 272.65 K): 0.0213 | solubility (mole fraction) (in methanol, 278.25 K): 0.028 | solubility (mole fraction) (in methanol, 283.55 K): 0.0359 | solubility (mole fraction) (in methanol, 288.15 K): 0.0444 | solubility (mole fraction) (in methanol, 293.15 K): 0.0554 | solubility (mole fraction) (in methanol, 297.85 K): 0.0675 | solubility (mole fraction) (in methanol, 302.65 K): 0.0823 | solubility (mole fraction) (in methanol, 307.25 K): 0.0984 | solubility (mole fraction) (in methanol, 312.55 K): 0.121 | solubility (mole fraction) (in methanol, 317.35 K): 0.145 | solubility (mole fraction) (in methanol, 323.35 K): 0.18 | solubility (mole fraction) (in methyl acetate, 272.65 K): 0.0189 | solubility (mole fraction) (in methyl acetate, 278.25 K): 0.0234 | solubility (mole fraction) (in methyl acetate, 283.55 K): 0.0296 | solubility (mole fraction) (in methyl acetate, 288.15 K): 0.0341 | solubility (mole fraction) (in methyl acetate, 293.15 K): 0.0397 | solubility (mole fraction) (in methyl acetate, 297.85 K): 0.0488 | solubility (mole fraction) (in methyl acetate, 302.65 K): 0.0596 | solubility (mole fraction) (in methyl acetate, 307.25 K): 0.0694 | solubility (mole fraction) (in methyl acetate, 312.55 K): 0.0838 | solubility (mole fraction) (in methyl acetate, 317.35 K): 0.0956 | solubility (mole fraction) (in methyl acetate, 323.35 K): 0.115 | solubility (mole fraction) (in n-butanol, 272.65 K): 0.00804 | solubility (mole fraction) (in n-butanol, 278.25 K): 0.0114 | solubility (mole fraction) (in n-butanol, 283.55 K): 0.0157 | solubility (mole fraction) (in n-butanol, 288.15 K): 0.0205 | solubility (mole fraction) (in n-butanol, 293.15 K): 0.027 | solubility (mole fraction) (in n-butanol, 297.85 K): 0.0349 | solubility (mole fraction) (in n-butanol, 302.65 K): 0.0449 | solubility (mole fraction) (in n-butanol, 307.25 K): 0.0569 | solubility (mole fraction) (in n-butanol, 312.55 K): 0.0743 | solubility (mole fraction) (in n-butanol, 317.35 K): 0.0934 | solubility (mole fraction) (in n-butanol, 323.35 K): 0.123 | solubility (mole fraction) (in n-pentanol, 272.65 K): 0.0117 | solubility (mole fraction) (in n-pentanol, 278.25 K): 0.0147 | solubility (mole fraction) (in n-pentanol, 283.55 K): 0.0182 | solubility (mole fraction) (in n-pentanol, 288.15 K): 0.0219 | solubility (mole fraction) (in n-pentanol, 293.15 K): 0.0264 | solubility (mole fraction) (in n-pentanol, 297.85 K): 0.0314 | solubility (mole fraction) (in n-pentanol, 302.65 K): 0.0373 | solubility (mole fraction) (in n-pentanol, 307.25 K): 0.0437 | solubility (mole fraction) (in n-pentanol, 312.55 K): 0.0521 | solubility (mole fraction) (in n-pentanol, 317.35 K): 0.0609 | solubility (mole fraction) (in n-pentanol, 323.35 K): 0.0733 | solubility (mole fraction) (in n-propanol, 272.65 K): 0.0142 | solubility (mole fraction) (in n-propanol, 278.25 K): 0.0187 | solubility (mole fraction) (in n-propanol, 283.55 K): 0.0243 | solubility (mole fraction) (in n-propanol, 288.15 K): 0.03 | solubility (mole fraction) (in n-propanol, 293.15 K): 0.0377 | solubility (mole fraction) (in n-propanol, 297.85 K): 0.0462 | solubility (mole fraction) (in n-propanol, 302.65 K): 0.0567 | solubility (mole fraction) (in n-propanol, 307.25 K): 0.0687 | solubility (mole fraction) (in n-propanol, 312.55 K): 0.0849 | solubility (mole fraction) (in n-propanol, 317.35 K): 0.102 | solubility (mole fraction) (in n-propanol, 323.35 K): 0.127
